Assay: xn = mol fraction of the nth substance listed
Conditions: 100 kPa

CS(=O)(=O)O + O
viscosity [mPa·s]
Conditions	293.15 K	298.15 K	303.15 K	308.15 K	313.15 K	318.15 K
x1 = 0.003409	1.037	0.9229	0.827	0.7471	–	–
x1 = 0.004307	1.042	0.9279	0.833	–	–	–
x1 = 0.005194	1.051	0.9391	0.8431	–	–	–
x1 = 0.006086	1.064	0.9475	0.8496	–	–	–
x1 = 0.006979	1.073	0.9565	0.8598	–	–	–
x1 = 0.007862	1.08	0.964	0.866	–	–	–
x1 = 0.008752	1.088	0.972	0.873	–	–	–
x1 = 0.0177	1.173	1.048	0.9423	0.8535	0.7777	0.713
x1 = 0.02629	1.264	1.131	1.02	0.9254	0.8437	0.7737
x1 = 0.03475	1.351	1.211	1.094	0.9939	0.9081	0.834
x1 = 0.04308	1.441	1.293	1.169	1.064	0.9738	0.8939
x1 = 0.05122	1.523	1.368	1.237	1.126	1.031	0.948
x1 = 0.05919	1.609	1.448	1.311	1.193	1.094	1.007
x1 = 0.06721	1.728	1.556	1.41	1.285	1.176	1.083
x1 = 0.07493	1.826	1.647	1.493	1.361	1.247	1.148
x1 = 0.08256	1.934	1.745	1.583	1.444	1.323	1.218
x1 = 0.09015	2.046	1.847	1.676	1.529	1.402	1.291
x1 = 0.09748	2.16	1.95	1.769	1.615	1.48	1.363
x1 = 0.1048	2.299	2.076	1.885	1.719	1.576	1.452
x1 = 0.112	2.411	2.177	1.977	1.803	1.652	1.519
